The values that follow come from PMC3997178 (Neuron, 2014).

SMILES strings stand for the structures.

The target of one experiment is GluA2 Leu704Tyr (Rattus norvegicus, UniProt P19491, L504Y/L725Y). Nature of the experiment: D-AP5 sensitivity of GluA2 Leu704 to tyrosine mutant. The class given is cell-based. To be noted: data not shown.
For experiment [1], the target named is GluN1/GluN2A Tyr737Ala NMDA receptor (Rattus norvegicus, UniProt Q00959, Y737A). Nature of the experiment: TEVC mutational analysis, GluN2A Tyr737Ala. To be noted: Tyr737Ala vs wild type.
In a further experiment the target is GluK1 Met722Tyr (Rattus norvegicus, UniProt P22756, M752Y). Nature of the experiment: D-AP5 sensitivity of GluK1 Met722 to tyrosine mutant. The class given is cell-based. To be noted: data not shown.
Another experiment deals with non-NMDA receptors. In words: D-AP5 effect on non-NMDA receptors. It counts as cell-based. To be noted: as high as 100 µM.
The target in experiment [2] is GluN1/GluN2A Tyr730Met NMDA receptor (Rattus norvegicus, UniProt Q00959, Y730M). Nature of the experiment: TEVC mutational analysis, GluN2A Tyr730Met. To be noted: Tyr730Met vs wild type.
Experiment [3] addresses GluN1/GluN2A Lys738Met NMDA receptor (Rattus norvegicus, UniProt Q00959, K738M). In words: TEVC mutational analysis, GluN2A Lys738Met. To be noted: Lys738Met vs wild type.
The target of experiment [4] is GluN1/GluN2A Tyr730Leu NMDA receptor (Rattus norvegicus, UniProt Q00959, Y730L). In words: TEVC mutational analysis, GluN2A Tyr730Leu. To be noted: Tyr730Leu vs wild type.
The target of experiment [5] is GluN1/GluN2A Val734Ala NMDA receptor (Rattus norvegicus, UniProt Q00959, V734A). In words: TEVC mutational analysis, GluN2A Val734Ala. To be noted: Val734Ala vs wild type.
Experiment [6] concerns the target GluN1/GluN2A Phe416Ala NMDA receptor (Rattus norvegicus, UniProt Q00959, F416A). Nature of the experiment: TEVC mutational analysis, GluN2A Phe416Ala. To be noted: Phe416Ala vs wild type.
The target in experiment [7] is GluN1/GluN2A Tyr730Phe NMDA receptor (Rattus norvegicus, UniProt Q00959, Y730F). Nature of the experiment: TEVC mutational analysis, GluN2A Tyr730Phe. To be noted: Tyr730Phe vs wild type.
Experiment [8] addresses GluN1/GluN2A Val713Ala NMDA receptor (Rattus norvegicus, UniProt Q00959, V713A). Nature of the experiment: TEVC mutational analysis, GluN2A Val713Ala. To be noted: Val713Ala vs wild type.
A further experiment deals with NMDA receptors. To be noted: ref Frizelle et al., 2006; Urwyler et al., 1996; cited from earlier work.
The test system of experiment [9] is GluN1/GluN2D NMDA receptors. In words: TEVC inhibition of currents, GluN1/GluN2D in Xenopus oocytes. It counts as cell-based, rat.
Experiment [10] deals with GluN1/GluN2A NMDA receptors (Rattus norvegicus, UniProt Q00959). It counts as cell-based.
Experiment [11] relates to GluN2A containing NMDA receptors. To be noted: ref Frizelle et al., 2006; cited from earlier work.
Experiment [12] addresses GluN1/GluN2A NMDA receptors (Rattus norvegicus, UniProt P35439+Q00959). It counts as cell-based.
The target of experiment [13] is GluK1 kainate receptors (Tyr506Cys Leu768Cys) (Rattus norvegicus, UniProt P22756, L798C/Y536C). Nature of the experiment: TEVC inhibition of L-glutamate induced currents, non-desensitizing GluK1 mutant. It counts as cell-based.
The target of experiment [14] is GluA2 AMPA receptors (Leu483Tyr, flip) (Rattus norvegicus, UniProt P19491, L504Y). In words: TEVC inhibition of L-glutamate induced currents, non-desensitizing GluA2 mutant. The class given is cell-based.
The mark [15] stands for this setting: 100 µM compound in the presence of 30 µM glutamate.

GluN1/GluN2A Lys738Met NMDA receptor, sequence (Q00959 20-1464 K738M limits assumed, other chains not shown): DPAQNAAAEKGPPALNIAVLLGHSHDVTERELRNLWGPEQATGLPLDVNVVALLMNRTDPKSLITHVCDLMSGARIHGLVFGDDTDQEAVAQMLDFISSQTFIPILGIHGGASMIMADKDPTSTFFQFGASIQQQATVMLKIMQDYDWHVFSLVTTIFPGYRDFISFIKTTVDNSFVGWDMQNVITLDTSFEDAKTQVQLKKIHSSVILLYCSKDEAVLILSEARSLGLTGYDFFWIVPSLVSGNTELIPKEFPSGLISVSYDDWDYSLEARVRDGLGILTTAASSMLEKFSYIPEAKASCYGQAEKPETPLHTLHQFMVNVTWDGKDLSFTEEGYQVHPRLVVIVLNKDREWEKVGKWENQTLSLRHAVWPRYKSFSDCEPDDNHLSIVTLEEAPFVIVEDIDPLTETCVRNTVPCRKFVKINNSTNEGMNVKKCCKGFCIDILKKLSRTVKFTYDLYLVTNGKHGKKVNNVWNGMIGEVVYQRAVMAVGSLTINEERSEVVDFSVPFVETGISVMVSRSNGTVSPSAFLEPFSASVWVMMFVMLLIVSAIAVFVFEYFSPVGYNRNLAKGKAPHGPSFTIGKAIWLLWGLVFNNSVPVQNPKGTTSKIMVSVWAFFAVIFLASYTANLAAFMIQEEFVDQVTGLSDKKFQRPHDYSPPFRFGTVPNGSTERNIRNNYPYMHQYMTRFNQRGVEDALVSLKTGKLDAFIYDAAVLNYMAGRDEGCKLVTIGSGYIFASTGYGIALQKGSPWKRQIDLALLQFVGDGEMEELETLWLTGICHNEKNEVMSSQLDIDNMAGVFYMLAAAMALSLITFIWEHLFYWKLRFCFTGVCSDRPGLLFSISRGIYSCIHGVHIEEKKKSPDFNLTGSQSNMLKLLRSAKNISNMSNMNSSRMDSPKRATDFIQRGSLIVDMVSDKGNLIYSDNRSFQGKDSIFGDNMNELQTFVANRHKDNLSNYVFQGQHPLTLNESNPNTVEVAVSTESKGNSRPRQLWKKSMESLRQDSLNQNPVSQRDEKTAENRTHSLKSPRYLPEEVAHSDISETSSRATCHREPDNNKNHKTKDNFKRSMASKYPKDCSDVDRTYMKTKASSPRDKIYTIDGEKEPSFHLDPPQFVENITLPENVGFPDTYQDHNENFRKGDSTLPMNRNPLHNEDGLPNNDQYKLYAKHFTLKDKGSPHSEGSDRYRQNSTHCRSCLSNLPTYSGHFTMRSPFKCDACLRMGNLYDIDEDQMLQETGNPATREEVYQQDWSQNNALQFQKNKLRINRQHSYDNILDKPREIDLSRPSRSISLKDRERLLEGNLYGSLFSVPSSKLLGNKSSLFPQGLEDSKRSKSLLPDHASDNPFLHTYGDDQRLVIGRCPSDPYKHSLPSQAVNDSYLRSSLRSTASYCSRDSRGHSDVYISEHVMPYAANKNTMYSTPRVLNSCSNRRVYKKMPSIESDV
GluN1/GluN2A Tyr737Ala NMDA receptor, sequence (Q00959 20-1464 Y737A limits assumed, other chains not shown): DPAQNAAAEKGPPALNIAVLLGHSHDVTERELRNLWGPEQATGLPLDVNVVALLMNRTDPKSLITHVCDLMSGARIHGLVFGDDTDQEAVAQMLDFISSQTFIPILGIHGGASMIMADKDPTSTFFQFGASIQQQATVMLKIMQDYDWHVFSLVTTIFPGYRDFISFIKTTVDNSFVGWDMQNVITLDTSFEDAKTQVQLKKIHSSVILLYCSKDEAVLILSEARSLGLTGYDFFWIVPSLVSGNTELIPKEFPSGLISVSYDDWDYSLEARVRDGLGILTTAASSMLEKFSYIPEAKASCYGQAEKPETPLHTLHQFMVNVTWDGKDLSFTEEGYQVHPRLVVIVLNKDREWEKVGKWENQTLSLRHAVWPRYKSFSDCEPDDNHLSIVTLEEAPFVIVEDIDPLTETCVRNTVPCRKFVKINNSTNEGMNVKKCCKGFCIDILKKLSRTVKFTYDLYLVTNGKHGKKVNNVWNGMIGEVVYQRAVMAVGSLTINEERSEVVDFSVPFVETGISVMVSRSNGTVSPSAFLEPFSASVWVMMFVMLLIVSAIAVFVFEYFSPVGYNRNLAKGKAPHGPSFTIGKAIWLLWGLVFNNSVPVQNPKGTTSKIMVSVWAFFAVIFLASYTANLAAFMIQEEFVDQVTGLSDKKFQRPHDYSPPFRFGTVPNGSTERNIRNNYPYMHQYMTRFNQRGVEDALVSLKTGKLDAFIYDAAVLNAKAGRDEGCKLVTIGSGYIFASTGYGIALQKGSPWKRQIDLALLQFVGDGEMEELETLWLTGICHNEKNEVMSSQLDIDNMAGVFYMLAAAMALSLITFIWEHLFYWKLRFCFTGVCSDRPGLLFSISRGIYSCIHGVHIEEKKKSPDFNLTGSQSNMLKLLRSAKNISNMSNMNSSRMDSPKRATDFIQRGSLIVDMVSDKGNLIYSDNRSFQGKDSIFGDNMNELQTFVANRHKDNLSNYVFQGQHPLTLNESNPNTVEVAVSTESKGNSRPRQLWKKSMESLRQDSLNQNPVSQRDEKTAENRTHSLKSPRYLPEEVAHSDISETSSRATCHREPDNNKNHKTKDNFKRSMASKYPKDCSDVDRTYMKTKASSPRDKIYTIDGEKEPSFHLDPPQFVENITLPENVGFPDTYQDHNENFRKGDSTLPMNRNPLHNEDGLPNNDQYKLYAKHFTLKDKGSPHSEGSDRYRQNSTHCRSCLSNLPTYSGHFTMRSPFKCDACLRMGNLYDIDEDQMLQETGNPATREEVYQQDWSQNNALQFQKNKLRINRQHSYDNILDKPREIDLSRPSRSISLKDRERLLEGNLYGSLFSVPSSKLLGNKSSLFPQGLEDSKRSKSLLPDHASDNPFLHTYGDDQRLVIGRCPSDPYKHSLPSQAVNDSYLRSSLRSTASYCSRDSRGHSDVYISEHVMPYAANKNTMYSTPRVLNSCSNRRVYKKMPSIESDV
GluK1 kainate receptors (Tyr506Cys Leu768Cys), sequence (P22756 31-949 Y536C/L798C): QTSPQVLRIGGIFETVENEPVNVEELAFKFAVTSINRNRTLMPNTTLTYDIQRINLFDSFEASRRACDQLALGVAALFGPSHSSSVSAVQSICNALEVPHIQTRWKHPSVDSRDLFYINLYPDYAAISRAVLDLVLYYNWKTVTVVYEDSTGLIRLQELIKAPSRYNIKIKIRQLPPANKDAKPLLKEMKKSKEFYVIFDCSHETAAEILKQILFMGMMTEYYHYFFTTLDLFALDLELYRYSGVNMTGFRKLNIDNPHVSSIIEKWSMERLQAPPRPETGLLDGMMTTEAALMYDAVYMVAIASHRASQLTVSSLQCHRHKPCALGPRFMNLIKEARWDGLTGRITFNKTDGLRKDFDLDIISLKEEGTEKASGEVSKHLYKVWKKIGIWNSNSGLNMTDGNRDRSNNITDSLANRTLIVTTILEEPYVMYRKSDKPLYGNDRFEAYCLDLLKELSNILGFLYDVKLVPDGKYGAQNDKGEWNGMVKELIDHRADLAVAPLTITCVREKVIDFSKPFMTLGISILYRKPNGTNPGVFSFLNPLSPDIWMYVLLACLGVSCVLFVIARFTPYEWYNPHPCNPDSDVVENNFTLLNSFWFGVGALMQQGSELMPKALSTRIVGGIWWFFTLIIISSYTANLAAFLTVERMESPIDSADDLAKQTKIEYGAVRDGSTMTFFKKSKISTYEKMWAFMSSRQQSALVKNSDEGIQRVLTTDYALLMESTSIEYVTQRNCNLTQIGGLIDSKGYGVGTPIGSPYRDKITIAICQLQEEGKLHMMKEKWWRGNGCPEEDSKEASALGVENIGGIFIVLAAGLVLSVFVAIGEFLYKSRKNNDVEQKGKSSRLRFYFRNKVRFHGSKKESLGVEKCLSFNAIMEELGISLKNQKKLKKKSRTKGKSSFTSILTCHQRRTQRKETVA
GluA2 AMPA receptors (Leu483Tyr, flip), sequence (P19491 22-883 isoform P19491-2 L504Y limits assumed): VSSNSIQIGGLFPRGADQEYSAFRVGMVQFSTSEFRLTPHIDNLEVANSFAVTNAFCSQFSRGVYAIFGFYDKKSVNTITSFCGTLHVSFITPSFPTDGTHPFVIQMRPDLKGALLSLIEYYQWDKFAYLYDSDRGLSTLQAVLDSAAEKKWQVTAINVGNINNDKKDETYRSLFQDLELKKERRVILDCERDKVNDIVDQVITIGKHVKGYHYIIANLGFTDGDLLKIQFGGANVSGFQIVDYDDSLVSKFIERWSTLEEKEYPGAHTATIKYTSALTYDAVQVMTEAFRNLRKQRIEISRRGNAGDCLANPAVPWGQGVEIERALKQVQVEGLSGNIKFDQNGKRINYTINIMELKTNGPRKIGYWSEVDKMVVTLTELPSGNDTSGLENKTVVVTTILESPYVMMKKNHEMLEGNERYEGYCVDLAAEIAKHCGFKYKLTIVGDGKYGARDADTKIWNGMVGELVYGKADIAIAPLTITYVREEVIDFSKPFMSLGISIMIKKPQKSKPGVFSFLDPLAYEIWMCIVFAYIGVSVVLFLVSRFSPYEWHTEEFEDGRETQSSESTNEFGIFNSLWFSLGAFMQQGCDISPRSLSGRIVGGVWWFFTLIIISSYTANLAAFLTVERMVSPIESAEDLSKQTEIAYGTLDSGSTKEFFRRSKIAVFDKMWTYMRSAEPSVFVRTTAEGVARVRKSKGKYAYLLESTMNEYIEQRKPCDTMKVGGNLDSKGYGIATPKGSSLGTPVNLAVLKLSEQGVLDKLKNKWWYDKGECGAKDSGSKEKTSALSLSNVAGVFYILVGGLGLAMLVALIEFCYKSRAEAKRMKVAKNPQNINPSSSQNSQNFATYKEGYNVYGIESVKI
GluK1 Met722Tyr, sequence (P22756 31-949 M752Y): as the sequence (P22756 31-949 Y536C/L798C) above, with C506Y, M722Y, C768L counted along it
GluA2 Leu704Tyr, sequence (P19491 22-883 isoform P19491-2 L504Y/L725Y): as the sequence (P19491 22-883 isoform P19491-2 L504Y limits assumed) above, with L704Y counted along it

For the compound `N[C@H](CCCP(=O)(O)O)C(=O)O` [D-AP5, D-(−)-2-Amino-5-phosphonopentanoic acid], the “sensitivity to D-AP5” value on GluA2 Leu704Tyr and at GluK1 Met722Tyr was “does not confer sensitivity” throughout. Also, the “effect of mutation on potency” value in [1], in [3] and in experiment [5] was “only minor effects” in each case. In the experiment on non-NMDA receptors, the inhibitory effect entry is reported as “no inhibitory effect”. Also, the “fold increase in Ki” value in experiment [2] was ~ 80 fold; in [4], ~ 20 fold. The “effect of mutation on sensitivity” value in experiment [6] and in experiment [8] was “minor effects” in each case. In [7], the change in sensitivity entry is given as “five-fold decrease in sensitivity”.

Turning to `N[C@@H](Cc1cc(-c2ccc(Cl)cc2Cl)cc(CP(=O)(O)O)c1O)C(=O)O` [SDZ220-040], the potency result in the experiment on NMDA receptors is “nanomolar potency”.

As for `O=C(O)C1NCCN(C(=O)c2ccc3c(ccc4ccccc43)c2)C1C(=O)O` (single isomer, unassigned; (+)) [(+)-PPDA, 1-(Phenanthrene-2-carbonyl)piperazine-2,3-dicarboxylic acid], the “fold higher potency toward GluN1/GluN2D than GluN1/GluN2A” value in experiment [9] is 5–6 fold. In addition, the “fold weaker potency than (−)-PPDA” value in experiment [9] (dose-response inhibition) is recorded as 6–7 fold; in experiment [10] (dose-response inhibition, TEVC) it was 6–7 fold.

Turning to `C[C@H](N[C@@H](c1cccc2[nH]c(=O)c(=O)[nH]c12)P(=O)(O)O)c1ccc(Br)cc1` [NVP-AAM077], in the experiment with NMDA receptors, the potency entry is given as “nanomolar potency”. In [11], the “specificity toward GluN2A containing over GluN2B containing NMDA receptors” value was 5 fold.

As for `O=C(O)C1NCCN(C(=O)c2ccc3c(ccc4ccccc43)c2)C1C(=O)O` (single isomer, unassigned; (-)) [(−)-PPDA, 1-(Phenanthrene-2-carbonyl)piperazine-2,3-dicarboxylic acid], the “effect of mutation on potency” value is “decreases the (−)-PPDA sensitivity” in experiment [1], “increases the (−)-PPDA sensitivity” in experiment [3] and “decreases the (−)-PPDA sensitivity” in experiment [5]. Further, the inhibition of current entry in experiment [10] (100 µM compound in the presence of agonists (100 µM glycine/30 µM glutamate)), in [13] (setting [15]) and in experiment [14] (setting [15]) was “completely inhibited” in each case. For the same compound, the results for the Ki in experiment [12], in experiment [13] and in [14] were 820 nM, 1170 nM and 7850 nM, respectively. The change in sensitivity result in experiment [2] is reported as “little or no change”; in experiment [4], “little or no change”; in [7] it was “increase in (−)-PPDA sensitivity”. Moreover, the “effect of mutation on sensitivity” value in experiment [6] and in [8] was “minor effects” each time.

By Ki is commonly meant the dissociation constant of the complex between target and ligand, obtained from inhibition or displacement.
